Experiment [1] has as its target T1, GST tagged LXRalpha LBD (ligand binding domain) (Homo sapiens, UniProt Q13133).
T1 construct: purchased Invitrogen pv4655
T1 sequence (Q13133 209-447 limits assumed): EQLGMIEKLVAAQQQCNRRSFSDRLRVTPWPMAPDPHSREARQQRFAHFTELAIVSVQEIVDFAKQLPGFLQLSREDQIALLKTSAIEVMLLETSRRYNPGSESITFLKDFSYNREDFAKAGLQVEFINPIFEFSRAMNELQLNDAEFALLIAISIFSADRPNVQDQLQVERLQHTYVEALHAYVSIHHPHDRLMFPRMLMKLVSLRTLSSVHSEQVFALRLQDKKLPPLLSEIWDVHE
In words: LanthaScreen TR-FRET Liver X Receptor Coactivator Assay, LXR alpha-LBD. Type of experiment: biochemical. As to conditions: relative to reference T0901317; for EC50: read-out: LXR alpha IP; for Emax: activity at max dose (efficacy), read-out: LXR alpha act @ max dose (%). In short, it runs like this: (§1)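 Compound-induced coactivator recruitment measured by TR-FRET between a terbium anti-GST antibody bound to the GST-LBD (LXRα or LXRβ, human) and a fluorescein coactivator peptide, after incubation at room temperature. Potency (inflection point) and efficacy (Emax) referenced to T0901317.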

Experiment [2] deals with T2, GST tagged LXRbeta LBD (ligand binding domain) (Homo sapiens, UniProt P55055).
T2 construct: purchased Invitrogen pv4658.pps
T2 sequence (P55055 222-460 limits assumed): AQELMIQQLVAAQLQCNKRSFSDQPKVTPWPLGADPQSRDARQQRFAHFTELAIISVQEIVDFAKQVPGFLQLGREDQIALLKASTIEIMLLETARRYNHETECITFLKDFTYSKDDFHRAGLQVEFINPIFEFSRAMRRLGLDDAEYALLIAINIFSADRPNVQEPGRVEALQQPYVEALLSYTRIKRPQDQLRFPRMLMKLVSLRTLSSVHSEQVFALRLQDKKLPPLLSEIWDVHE
Put plainly: LanthaScreen TR-FRET Liver X Receptor Coactivator Assay, LXR beta-LBD. Type of experiment: biochemical. The note with it: relative to reference T0901317; for EC50: Inflection Point (potency), co-activator recruitment, read-out: LXR beta IP; for Emax: activity at max dose (efficacy), read-out: LXR beta act @ max dose (%). In short, it runs like this:
as §1
Background: Time-resolved FRET reads energy transfer from a long-lived donor to a nearby acceptor.

The mark [3] stands for this setting: Inflection Point (potency), co-activator recruitment.

SMILES strings stand for the structures.

Take `CN(C)C(=O)c1ccc(N2CCC(C3CCN(C(=O)OCc4c(Cl)cccc4Cl)CC3)CC2)cc1Cl` [Example A-108, 2,6-dichlorobenzyl 1′-[3-chloro-4-(dimethylcarbamoyl)phenyl]-4,4′-bipiperidine-1-carboxylate]: the values for the EC50 in experiment [1] (setting [3]) and in experiment [2] were 522 nM and 8 nM, respectively. Moreover, the figures for the Emax in experiment [1] and in experiment [2] were 74% and 131%, respectively.
The matching figures for `CC(C)C(O)(C(=O)N1CCC(C2CCN(c3ccc(C(=O)N(C)C)c(Cl)c3)CC2)CC1)C(C)C` [Example A-109, 2-chloro-4-{1′-[2-hydroxy-3-methyl-2-(1-methylethyl)butanoyl]-4,4′-bipiperidin-1-yl}-N,N-dimethylbenzamide]: 54200 nM, 61 nM, 22% and 98%.
The matching figures for `CC(C)C(O)(C(=O)N1CCC(C2CCN(c3ccc(C(=O)N(C)C)c(Cl)c3)CC2)CC1)C1CC1` (centres unmarked) [Example A-110, 2-chloro-4-[1′-(2-cyclopropyl-2-hydroxy-3-methylbutanoyl)-4,4′-bipiperidin-1-yl]-N,N-dimethylbenzmamide]: 1040 nM, 52 nM, 69% and 127%.
On the same counts, the results for `CN(C)C(=O)c1ccc(N2CCC(C3CCN(C(=O)OC(C)(C)C)CC3)CC2)nc1Cl` [Example B-1, tert-butyl 1′-[6-chloro-5-(dimethylcarbamoyl)pyridin-2-yl]-4,4′-bipiperidine-1-carboxylate] are 1550 nM, 20 nM, 74% and 119%.
Take `CC(C)C(O)(C(=O)N1CCC(C2CCN(c3ccc(C(=O)N(C)C)c(Cl)n3)CC2)CC1)C(C)C` [Example B-2, 2-chloro-6-{1′-[2-hydroxy-3-methyl-2-(1-methylethyl)butanoyl]-4,4′-bipiperidin-1-yl}-N,N-dimethylpyridine-3-carboxamide]: the results for the EC50 in experiment [1] (setting [3]) and in experiment [2] were 1710 nM and 57 nM, respectively. Also, the figures for the Emax in experiment [1] and in experiment [2] were 47% and 123%, respectively.
On the same counts, the results for `CC(C)C(O)(C(=O)N1CCC(C2CCN(c3ccc(C(=O)N(C)C)c(Cl)n3)CC2)CC1)C1CC1` (centres unmarked) [Example B-3, 2-chloro-6-[1′-(2-cyclopropyl-2-hydroxy-3-methylbutanoyl)-4,4′-bipiperidin-1-yl]-N,N-dimethylpyridine-3-carboxamide] are 1790 nM, 325 nM, 71% and 143%.
On the same counts, the results for `CC(C)C(O)(C(=O)N1CCC(C2CCN(c3ccc(C(=O)N(C)C)c(Cl)n3)CC2)CC1)C(F)(F)F` (centres unmarked) [Example B-4, 2-chloro-6-{1′-[2-hydroxy-3-methyl-2-(trifluoromethyl)butanoyl]-4,4′-bipiperidin-1-yl}-N,N-dimethylpyridine-3-carboxamide] are 493 nM, 26 nM, 48% and 123%.
The matching figures for `CC(C)CC(O)(C(=O)N1CCC(C2CCN(c3ccc(C(=O)N(C)C)c(Cl)n3)CC2)CC1)C(F)(F)F` (centres unmarked) [Example B-7, 2-chloro-6-{1′-[2-hydroxy-4-methyl-2-(trifluoromethyl)pentanoyl]-4,4′-bipiperidin-1-yl}-N,N-dimethylpyridine-3-carboxamide]: 1430 nM, 72 nM, 55% and 127%.
Regarding `CN(C)C(=O)c1ccc(N2CCC(C3CCN(C(=O)c4c(F)cccc4F)CC3)CC2)nc1Cl` [Example B-8, 2-chloro-6-{1′-[(2,6-difluorophenyl)carbonyl]-4,4′-bipiperidin-1-yl}-N,N-dimethylpyridine-3-carboxamide], the figures for the EC50 in experiment [1] (setting [3]) and in experiment [2] were 885 nM and 71 nM, respectively. Further, the figures for the Emax in experiment [1] and in experiment [2] were 38% and 95%, respectively.
The matching figures for `CN(C)C(=O)c1ccc(N2CCC(C3CCN(C(=O)c4c(Cl)cccc4Cl)CC3)CC2)nc1Cl` [Example B-10, 2-chloro-6-{1′-[(2,6-dichlorophenyl)carbonyl]-4,4′-bipiperidin-1-yl}-N,N-dimethylpyridine-3-carboxamide]: 1370 nM, 161 nM, 55% and 106%.
The matching figures for `CN(C)C(=O)c1ccc(N2CCC(C3CCN(C(=O)C(C)(O)C(F)(F)F)CC3)CC2)nc1Cl` (centres unmarked) [Example B-11, 2-chloro-N,N-dimethyl-6-[1′-(3,3,3-trifluoro-2-hydroxy-2-methylpropanoyl)-4,4′-bipiperidin-1-yl]pyridine-3-carboxamide]: 2200 nM, 177 nM, 48% and 116%.
As for `CN(C)C(=O)c1ccc(N2CCC(C3CCN(C(=O)C(C)(C)c4ccccc4)CC3)CC2)nc1Cl` [Example B-12, 2-chloro-N,N-dimethyl-6-[1′-(2-methyl-2-phenylpropanoyl)-4,4′-bipiperidin-1-yl]pyridine-3-carboxamide], the EC50 in experiment [1] (setting [3]) was found to be 684 nM; in experiment [2], 65 nM. Moreover, the results for the Emax in experiment [1] and in experiment [2] were 69% and 140%, respectively.
As to `CN(C)C(=O)c1ccc(N2CCC(C3CCN(C(=O)C(O)(c4ccccc4)C(F)(F)F)CC3)CC2)nc1Cl` (centres unmarked) [Example B-13, 2-chloro-N,N-dimethyl-6-[1′-(3,3,3-trifluoro-2-hydroxy-2-phenylpropanoyl)-4,4′-bipiperidin-1-yl]pyridine-3-carboxamide], the “LXR alpha IP (nM)” value in experiment [1] (setting [3]) is given as “NO IP”. Also, in experiment [1], the Emax was determined as 28%. For the same compound, in experiment [2], the EC50 was 291 nM and the Emax is 95%.
With `CN(C)C(=O)c1ccc(N2CCC(C3CCN(C(=O)C4(c5ccccc5)CCC4)CC3)CC2)nc1Cl` [Example B-14, 2-chloro-N,N-dimethyl-6-{1′-[(1-phenylcyclobutyl)carbonyl]-4,4′-bipiperidin-1-yl}pyridine-3-carboxamide], the EC50 is 1230 nM in experiment [1] (setting [3]) and 73 nM in experiment [2]. For the same compound, the Emax in experiment [1] was 43%; in experiment [2] it was 114%.
On the same counts, the results for `CN(C)C(=O)c1ccc(N2CCC(C3CCN(C(=O)C(O)(C(F)(F)F)C(F)(F)F)CC3)CC2)nc1Cl` [Example B-15, 2-chloro-N,N-dimethyl-6-{1′-[3,3,3-trifluoro-2-hydroxy-2-(trifluoromethyl)propanoyl]-4,4′-bipiperidin-1-yl}pyridine-3-carboxamide] are 2240 nM, 34 nM, 87% and 121%.
On to `Cc1nc(N2CCC(C3CCN(C(=O)C(O)(C(C)C)C(F)(F)F)CC3)CC2)ccc1C(=O)N(C)C` (centres unmarked) [Example C-1, 6-(1′-(2-Hydroxy-3-methyl-2-(trifluoromethyl)butanoyl)-[4,4′-bipiperidin]-1-yl)-N,N,2-trimethylnicotinamide], for which the EC50 in experiment [1] (setting [3]) was 21 nM; in experiment [2], 148 nM. The Emax in experiment [1] was 24%; in experiment [2] it was 101%.
On the same counts, the results for `CC(C)C(O)(C(=O)N1CCC(C2CCN(c3cc(F)c(C(=O)N(C)C)c(F)c3)CC2)CC1)C(F)(F)F` [Example D-1, 2,6-difluoro-4-{1′-[2-hydroxy-3-methyl-2-(trifluoromethyl)butanoyl]-4,4′-bipiperidin-1-yl}-N,N-dimethylbenzamide] are 1450 nM, 157 nM, 43% and 101%.
Regarding `CC(C)C(O)(C(=O)N1CCC(C2CCN(c3ccc(C(=O)N(C)C)c(F)c3)CC2)CC1)C(F)(F)F` [Example D-2, 2-fluoro-4-{1′-[2-hydroxy-3-methyl-2-(trifluoromethyl)butanoyl]-4,4′-bipiperidin-1-yl}-N,N-dimethylbenzamide], the EC50 worked out at 2770 nM in experiment [1] (setting [3]) and 400 nM in experiment [2]. For the same compound, the Emax in experiment [1] was 41%; in experiment [2] it was 99%.
The matching figures for `CC(C)C(O)(C(=O)N1CCC(C2CCN(c3ccc(C(=O)N(C)C)cc3Cl)CC2)CC1)C(F)(F)F` [Example D-3, 3-chloro-4-{1′-[2-hydroxy-3-methyl-2-(trifluoromethyl)butanoyl]-4,4′-bipiperidin-1-yl}-N,N-dimethylbenzamide]: 1570 nM, 273 nM, 67% and 118%.
On the same counts, the results for `CN(C)S(=O)(=O)c1ccc(N2CCC(C3CCN(C(=O)[C@](O)(c4ccccc4)C(F)(F)F)CC3)CC2)cc1Cl` [Example D-4, 2-chloro-N,N-dimethyl-4-{1′-[(2R)-3,3,3-trifluoro-2-hydroxy-2-phenylpropanoyl]-4,4′-bipiperidin-1-yl}benzenesulfonamide] are 2050 nM, 371 nM, 29% and 89%.

For the origin of these results see patent US20180305332A1, “Bispiperidinyl Derivatives as Liver X Receptor Beta Agonists, Compositions, and Their Use” (Merck Sharp & Dohme Corp., priority 2015, published 2018).
